Key:
AMPA type receptors = experiment: 3H-AMPA Binding (Test 1), rat cerebral cortical membrane homogenate; details: 3H-AMPA 5 nM, rat cerebral cortical membranes, pH 7.1, 0° C., 30 min; read-out: TEST 1 IC50 (displacement of 50% of the specific binding of 3H-AMPA)
Procedure: (§1) The pharmacological properties of the compounds of the present invention can be illustrated by determining their capability for displacing radioactively labelled 2-amino-3-hydroxy-5-methyl-4-isoxazolepropionic acid (AMPA) from the AMPA type receptors.
The displacement activity of the compounds may be shown by determining the IC50 value which represents the concentration (μM) which causes a displacement of 50% of the specific binding of ^3 H-AMPA.
^3 H-AMPA Binding (Test 1)
500 μl of thawed rat cerebral cortical membrane homogenate in Tris-HCl (30 mM), CaCl2 (2.5 mM) and KSCN (100 mM) pH 7.1 were incubated at 0° C. for 30 min. with 25 μl ^3 H-AMPA (5 nM final concentration) and the test compound and buffer. Nonspecific binding was determined by incubation with L-glutamic acid (600 μM final concentration). The binding reaction was terminated by adding 5 ml of ice-cold buffer followed by filtration through Whatman GF/C glass fibre filters and 2×5 ml wash with ice-cold buffer. Bound radioactivity was measured by scintillation counting. IC50 was determined by Hill analysis of at least four concentrations of test compound.

[1] = test system: quisqualic acid stimulated spreading depression in chicken retina; experiment: Spreading Depression (Test 2), quisqualate stimulated, chicken retina; type: cell-based; details: Gallus gallus, 0.25 h, quisqualate 1 μg/ml, 26° C., 15 min incubation with test compound, read-out: TEST 2 IC50 (50% maximal inhibition of quisqualic acid stimulated spreading depression)
Procedure: as §1
The antagonism is measured by determining the IC50 value which represents the concentration which produces a 50% maximal inhibition of quisqualic acid stimulated spreading depression in chicken retina.
Spreading Depression (Test 2)
Chicks (3-10 days old) were decapitated, the eyes enucleated and sectioned along the equatorial plane. […]
The eyes were initially incubated in normal P.S.S. for 15-30 min. and then transferred to P.S.S. containing quisqualate (1 μg/ml). […] The time taken for an S.D. to start in each eye was measured.
After a further 15 min. of incubation in normal P.S.S. the eyes were transferred to normal P.S.S. containing the test compound and incubated for 15 min. […] The time taken for an S.D. to start in each eye was measured again. The eyes were then placed back in normal P.S.S. and after 15 min. the time taken for S.D. to start was measured again, in order to assess the degree of recovery from any drug effects. […]

Compound | IC50 (AMPA type receptors) | IC50 [1]
O=c1[nH]c2cc(C(F)(F)F)ccc2n2c(CP(=O)(O)O)nnc12 [Example 20, 1-Phosphonomethyl-7-trifluoromethyl[1,2,4]triazolo[4,3-a]quinoxalin-4(5H)-one] | 260 nM | 400 nM
O=c1[nH]c2c3ccccc3ccc2n2c(CP(=O)(O)O)nnc12 [Example 30, 3-Phosphonomethylbenzo[f]-1,2,4-triazolo[4,3-a]quinoxalin-12(11H)-one] | 480 nM | 1400 nM

Reference: US5559106A, “Heterocyclic compounds, their use and preparation” (Novo Nordisk A/S, priority 1993, dated 1996)
